The source of these data is patent US11484558B2, “Epizootic hemorrhagic disease virus—tel aviv university (EHDV-TAU)—oncolytic virus for treating cancer” (Ramot at Tel-Aviv University Ltd., priority 2017, dated 2022).

Data set [1] deals with LNCaP-JAK1 cells. Kind of data set: Trypan blue exclusion assay of LNCaP-JAK1 cells. The data set is classed as cell-based, human. The protocol: Graph depicts mean±SE (n=5) of the percentage of trypan blue permeable cells with and without IFNα. **p<0.005.
Graph depicts mean±SE (n=10).**p<0.005; ns, non-significant.
In the presence of Q-VD-OPh (throughout pre-treatment and infection). **p<0.01.
The indicated cells were treated and infected as in FIG. 9B, and the percentage of dead cells was determined by trypan blue exclusion assay. Graph depicts mean±SE of the percentage of dead cells with and without IFNγ (n=3). **p<0.005; ns (non-significant).
Trypan blue exclusion assay—2×10^5 LNCaP cells/well in a 12-well plate were infected, or not, under the indicated experimental conditions. For each well, detached and attached cells were collected together and mixed with 0.5% trypan blue at a 1:1 ratio. Cells were classified by trypan blue exclusion by light microscopy. Trypan blue (0.5%) was from Beit Haemek Biological Industries, Israel (cat. #03-102-1B).

Data set [2] deals with LNCaP cells. In words: Preliminary experiments, toxicity of TSA to LNCaP cells. The data set is classed as cell-based, human. As to conditions: longer incubation periods (84 to 96 hours).
In data set [3] the test system is LNCaP cells. Kind of data set: Immunofluorescence of NS3-positive infected LNCaP cells with or without IFNα. The data set is classed as cell-based, human. As to conditions: IFNα 200 U/ml for 45 hours. The protocol:
(§1) Quantification of percentage NS3 positive cells was from multiple (n=5) randomly selected fields, imaged under the same conditions as in FIG. 4D; *p<0.05.
(§2) Immunofluorescence—DU145 or LNCaP cells were seeded (5×10^4 cells/well) onto glass coverslips placed in a 24-well plate, and were infected, or not, with EHDV-TAU-LNCaP, in the presence or absence of IFNα. At 44 hours post infection (hpi) or 2 hours (for IFNα treatment), cells were washed twice with cold PBS (4° C.), fixed (4% paraformaldehyde for 20 minutes), blocked and permeabilized (PBS 1%/BSA 0.1%/Triton 0.1% (PBS/BSA/T) for 30 minutes), and stained with polyclonal anti-NS3 (1:300 dilution in PBS/BSA/T). Alexa-488 or 555-conjugated goat-anti-rabbit antibodies (1:200 dilution in PBS/BSA/T) were used as secondary antibodies. In order to detect nuclear phosphorylated STAT1, cells were fixed (4% paraformaldehyde for 20 minutes) and permeabilized with ice-cold methanol (10 minutes at −20° C.). Cells were stained with Rabbit-anti phospho-Tyr701-STAT1 (1:100 dilution in PBS/BSA/T) for overnight at 4° C. Mounting was with Fluorescence Mounting Medium (Golden Bridge, Mukilteo, Wash., USA, cat. #E1818).

For data set [4], the system named is LNCaP-JAK1 cells. The data set is classed as cell-based, human.
The subject of data set [5] is DU145 cells. Kind of data set: Immunofluorescence of NS3-positive infected DU145 cells with or without IFNα. It counts as cell-based, human. As to conditions: DU145, IFNα 200 U/ml for 45 hours. The protocol:
as §1, §2

The subject of data set [6] is DU145 cells. In words: Virus-induced death of DU145 cells with IFN. It counts as cell-based, human. The note with it: DU145, IFN alone.
The test system of data set [7] is LNCaP cells. The data set is classed as cell-based, human.
In data set [8] the test system is LNCaP-JAK1 cells. In words: qRT-PCR of IFIT5 and IRF7 in LNCaP-JAK1 cells after IFNα. The data set is classed as cell-based, human. As to conditions: LNCaP-JAK1, IFNα 200 U/ml for 24 hours. The protocol: The average expression level of untreated cells was taken as 1. *p<0.05.
qRT-PCR—Total RNA was extracted from cells using EZ-RNA kit (Biological Industries, Israel, cat. #20-400-100) according to the manufacturer's instructions. First-strand cDNA synthesis was performed using the iScript cDNA Synthesis Kit (Bio Rad cat. #1708890) according to the manufacturer's instructions, with additional no-RNA control. Real-Time PCR analyses of mRNA levels of the genes of interest, relative to GAPDH mRNA levels were performed in triplicates, using Fast SYBR-green master mix (Applied Biosystems, cat. #4385612) with StepOnePlus Real-Time PCR System (Applied Biosystems, cat. #4376600). Primers were designed to span exon-exon junctions and to produce 80-140 bp amplicons. Gene expression values were calculated based on the comparative threshold cycle method.
Background: Quantitative PCR measures a nucleic acid by following its amplification.

Data set [9] relates to LNCaP-JAK1 cells. In words: SILAC proteome analysis of LNCaP-JAK1 cells. As to conditions: for number of ISGs upregulated (of 50 ISGs): LNCaP-JAK1, cytokine treatment alone.
Description: Stable Isotope Labeling by Amino Acids Analysis (S/LAC)—LNCaP and LNCaP-JAK1 cells were grown in RPMI devoid of lysine and arginine (Thermo, Cat. #A2494401), supplemented with 10% dialyzed FCS (Biological Industries, cat. #04-011-1A) and antibiotics for ten cell divisions (^˜3 weeks). “Heavy” culture medium was supplemented with ^13C6^15N2-lysine (146 mg/ml, cat. #CNLM-291-H) and ^13C6^15N4-arginine (84 mg/ml cat. #CNLM-539-H) both from Cambridge Isotope Laboratories. “Light” labeled culture medium was supplemented with unmodified lysine and arginine at the same concentrations. To avoid potential bias in the analysis, in any given condition, cultures were labeled with heavy (H) or light (L) amino acids; or with the reciprocal labeling. Each H-L pair was repeated twice. Thus, quantification of each condition was based on four independent replicates. Labeled cells, either treated or untreated, were trypsinized, counted, and washed twice in cold PBS. Samples were digested by trypsin and analyzed by Liquid chromatography tandem-mass spectrometry (LC-MS/MS) on Q Exactive hybrid quadrupole-Orbitrap mass spectrometer (Thermo Scientific). The data were analyzed and quantified with MaxQuant 1.5.2.8, using the human Uniprot database. Proteins were identified with false discovery rate (FDR)<0.01.
The subject of data set [10] is LNCaP cells. In words: IFNα-mediated STAT1 phosphorylation in LNCaP cells (immunoblot). The data set is classed as cell-based, human.
Data set [11] has as its system DU145 cells. Kind of data set: IFNα-mediated STAT1 phosphorylation in DU145 cells (immunoblot). The data set is classed as cell-based, human. (In general: In western blotting, separated proteins are transferred to a membrane and probed.)
The subject of data set [12] is LNCaP-JAK1 cells. In words: IFNα-induced pSTAT1 in LNCaP-JAK1 cells (immunoblot). The data set is classed as cell-based, human. As to conditions: LNCaP-JAK1, 200 U/ml for 2 hours.
Data set [13] deals with LNCaP cells. In words: SILAC proteome analysis of LNCaP cells. As to conditions: IL-6 5 ng/ml for 16 hours.
For data set [14], the system named is LNCaP-JAK1 cells. In words: Cell cycle analysis (sub-G1, PI, FACS) of LNCaP-JAK1 cells. The note with it: LNCaP-JAK1, IL-6 treatment. It counts as cell-based, human. The protocol:
RPMI (supplemented with 10% FCS, 10 ml) was added post-fixation, after which cells were pelleted, washed twice with cold PBS and re-suspended in PBS supplemented with RNase A (20 μg/ml, 30 minutes). Following additional pelleting, cells were re-suspended in Propidium Iodide (P1) solution (50 μg/ml in PBS) and analyzed by FACS (Becton Dickinson).

Data set [15] relates to LNCaP-JAK1 cells. In words: Immunoblot of STAT1 and STAT3 phosphorylation after IFNγ in LNCaP-JAK1 cells. It counts as cell-based, human. As to conditions: LNCaP-JAK1, IFNγ 25 ng/ml for 20 minutes. The protocol: LNCaP and LNCaP-JAK1 cells were exposed to 25 ng/ml of IFNγ for 20 minutes.

With `COC(=O)CC(NC(=O)C(NC(=O)c1ccc2ccccc2n1)C(C)C)C(=O)COc1c(F)cccc1F` (stereo not shown) [Q-VD-OPh, Quinolyl-valyl-O-methylaspartyl-[-2,6-difluorophenoxy]-methyl ketone, reference compound], in data set [1] (LNCaP-JAK1, Q-VD-OPh 20 μM, regardless of the presence of IL-6), the “effect of caspase inhibition on death of infected cells” value is reported as “to basal levels”.
As to `CC(/C=C/C(=O)NO)=C\[C@@H](C)C(=O)c1ccc(N(C)C)cc1` [TSA, trichostatin A], the “toxicity to LNCaP cells” value in data set [2] was “toxic”.
IFNα: the “effect of IFNα on EHDV-TAU-LNCaP infection” value in data set [3] is given as “negligible effects”. Further, in data set [4], the “effect on production of infectious virions” value is “inhibited production of infectious virions”. The “effect of IFNα on NS3 signal of EHDV-TAU-LNCaP-infected cultures” value in data set [5] is on record as “abrogated the NS3 signal”. Besides, the “protection from virus-induced death” value in [6] was “significantly protect”. The “activation of ISRE luciferase reporter” value in data set [7] came to 1.2±0.1 fold. In addition, in data set [8], the “expression of IFIT5 and IRF7” value is listed as “marked induction”. Also, the “number of ISGs upregulated (of 50 ISGs)” value in [9] is 17. The “enrichment of ISGs in IFNα-induced proteome changes” value in data set [9] (LNCaP-JAK1 compared to parental LNCaP cells) was found to be 24.4%. The “pSTAT1 in response to IFNα” value in data set [10] (200 U/ml for 4 hours) is listed as “only residual pSTAT1 levels”. For the same molecule, the “increase in pSTAT1 levels” value is 4.2±2.5 fold in [10] (30 minutes post stimulation with 200 U/ml IFNα) and 18±11 fold in [11] (DU145, 30 minutes post stimulation with 200 U/ml IFNα). Moreover, in [1] (LNCaP-JAK1, IFNα 200 U/ml), the “effect on EHDV-TAU-LNCaP-induced cell death” value is recorded as “protection from EHDV-TAU-LNCaP-induced cell death was observed”. In addition, the “STAT1 phosphorylation in response to IFNα” value in data set [11] (DU145, 200 U/ml for 4 hours) is “robust STAT1 phosphorylation”. Besides, the “pSTAT1 levels upon IFNα stimulation” value in [12] is “dramatic increases in pSTAT1 levels”.
“IL-6: Human IL-6 (PeproTech), pleiotropic cytokine”: the “number of ISGs upregulated (of 50 ISGs)” value in data set [13] amounted to 3; in data set [9], 16. In data set [14], the “percentage of cells exhibiting sub-G1 DNA content” value is reported as “slight increase”.

B1: IFNγ: human IFNγ (PeproTech) (protein, UniProt P01579 24-161, looked up)
Interferon gamma: QDPYVKEAENLKKYFNAGHSDVADNGTLFLGILKNWKEESDRKIMQSQIVSFYFKLFKNFKDDQSIQKSVETIKEDMNVKFFNSNKKKRDDFEKLTNYSVTDLNVQRKAIHELIQVMAELSPAAKTGKRKRSQMLFRG
On to B1, for which the “number of ISGs induced” value in [9] (LNCaP-JAK1, IFNγ 25 ng/ml, 14 hours) was determined as 35. Besides, the STAT activation entry in data set [15] was “activated STAT1 (but not STAT3)”. In addition, in data set [1] (LNCaP-JAK1, IFNγ 25 ng/ml), the “effect on death of infected cells” value is recorded as “supported oncolysis by non-productive viral infection”.
